Experimental findings from US7052714B1, “Ophthalmic adhesive preparations for percutaneous adsorption” (Senju Pharmaceutical Co., LTD, priority 1999, dated 2006) are described below.

The conditions of data set [1]: male, Wistar/ST, rat, in vivo.
Method: (§1) 0.5-ml blood sampling was performed over time through a sampling port of the cannula placed on the occipital region of the rat's head. For measurement of transfer of the drug to the ocular tissues, rats were euthanized with an excess amount of sodium pentobarbital solution and the ocular tissues were removed. The tissues were pretreated, extracted and measured to determine the concentration of the drug by HPLC.
(§2) Determination of the concentration of N-(4-fluorophenylsulfonyl)-L-valyl-L-leucinal in the samples was carried out by HPLC under the following conditions.
Data set [2] can be described thus: in vivo. The settings on record: male, Wistar/ST, rat.
Method: as §1, §2
Data set [3] in a line: In vivo test-2: SJA6017 transdermal patch, transfer to the plasma and ocular tissues. More on the design: species or system Wistar/ST rats. The settings on record: transdermal application, 12 hours after application. From the text: A study of SJA6017-containing transdermal patch according to the formula below was made for examining transfer of SJA6017 from the patch to the plasma and to the ocular tissues, and comparison of the results with those from intravenous injection was also made.
The hair was removed under anesthesia with a clipper and a shaver carefully to avoid injuring the skin. A SJA6017 transdermal patch having a drug-containing layer according to the above formula with the size of 5.0×6.0 cm (30 cm^2) was applied to the animals (n=10) of the percutaneous administration group on the abdominal skin and secured in position with a supporting tape to prevent it from falling. After 12 hours of application, the animals were sacrificed and the blood was collected from the abdominal aorta, and the plasma separated. The eyes were excised at the same time. Each of the eyes was separated into the aqueous humor, the lens and the other tissues (consisting of the cornea, the sclera, the iris-ciliary body, the vitreous body and the retina-choroid), and corresponding tissues separated from the 20 eyes were combined, respectively, to make a sample.

A short description of data set [4]: In vivo test-2: intravenous administration experiment. More on the design: species or system Wistar rats. The settings on record: intravenous injection 2 mg/kg, rat, 15 minutes after injection. As to the method:
An intravenous administration experiment was carried out using 5 male Wistar rats (body weight approx. 600 g: 592±34 g) by administering 2 mg/kg SJA6017 through the tail vein of the animals under pentobarbital anesthesia. For the administration, a solution was used containing 10 mg SJA6017 dissolved in 10 ml mixture of ethanol/PEG400/water (1/2/1). Fifteen minutes after the intravenous administration, the animals were sacrificed, the blood was collected through the abdominal aorta, and the plasma separated. The eyes were excised at the same time. Each of the eyes was separated into the aqueous humor, the lens and the other tissues (consisting of the cornea, the sclera, the iris-ciliary body, the vitreous body and the retina-choroid), and corresponding tissues separated from the 10 eyes were combined, respectively, to make a sample.

The nature of data set [5]: In vivo test-1: transfer of drugs from transdermal patches to the plasma and ocular tissues.
Method: as §1, §2
Setting [6] is: male, Wistar/ST, rat, plasma, other: transdermal patch applied on the abdominal skin, 10 cm^2.
Setting [7] is: male, Wistar/ST, rat, plasma, other: transdermal patch applied on the abdominal skin, 10 cm^2 patch.

“And” between values parts separate entries of the source, which are not always exact repeats. Identical values can stand only once. Like-named read-outs stand apart in the source and are kept apart here.

As for `C[C@]12C=CC(=O)C=C1CC[C@@H]1[C@@H]2[C@@H](O)C[C@@]2(C)[C@H]1CC[C@]2(O)C(=O)CO` [Prednisolone, prednisolone], in data set [1], the “time after application at which plasma concentration reached the peak” value worked out at 8 h. Moreover, in data set [2], the concentration at 0 h was 0 ng/mL; the concentration at 2 h stood at 220 ng/mL; the concentration at 4 h is 288 ng/mL; the concentration at 6 h was 70 ng/g and 385 ng/mL. In data set [2], this compound returned a concentration at 8 h of 608 ng/mL, a concentration at 12 h of 148 ng/mL, a concentration at 18 h of 99 ng/mL and a concentration at 24 h of 77 ng/mL.
Turning to `CC(C)C[C@@H](C=O)NC(=O)[C@@H](NS(=O)(=O)c1ccc(F)cc1)C(C)C` [SJA6017, N-(4-fluorophenylsulfonyl)-L-valyl-L-leucinal], the concentration at 12 h in data set [3] (male, Wistar/ST, eye (ocular tissues), other: transdermal patch applied on the abdominal skin, 30 cm^2 patch, 5 W/W% SJA6017 patch 30 cm^2, rat, read-out: Intraocular concentration) worked out at 7.2 ng/g. Moreover, the concentration at 12 h in data set [3] (male, Wistar/ST, lens, other: transdermal patch applied on the abdominal skin, 30 cm^2 patch, SJA6017 patch 30 cm^2, rat, read-out: Intraocular concentration, itemized: Lens) was determined as 1.1 ng/g. In addition, in data set [3] (male, Wistar/ST, other: transdermal patch applied on the abdominal skin, 30 cm^2 patch, SJA6017 patch 30 cm^2, rat, read-out: Intraocular concentration, itemized: Other ocular tissues (cornea, sclera, iris-ciliary body, vitreous body, retina-choroid)), the concentration at 12 h amounted to 13.8 ng/g. For the same compound, the concentration at 12 h in data set [3] (male, Wistar/ST, plasma, other: transdermal patch applied on the abdominal skin, 30 cm^2 patch, 5 W/W% SJA6017 patch 30 cm^2, rat, read-out: Plasma concentration) is 47 ± 12 ng/mL. The Kp at 12 h in data set [3] (male, Wistar/ST, rat, eyeball/plasma, other: transdermal patch applied on the abdominal skin, 30 cm^2 patch, SJA6017 patch 30 cm^2, rat, read-out: Eyeball/plasma ratio) was roughly 0.16. For the same compound, in data set [3] (SJA6017 patch 30 cm^2, rat), the “Intraocular concentration, itemized: Aqueous humor” value is “not detected”; the “Lens: ratio to plasma concentration (100%)” value is “(2.3%)*^2”; the “Other ocular tissues: ratio to plasma concentration (100%)” value was “(29.6%)*^2”. In addition, in data set [4], the “Intraocular concentration, itemized: Aqueous humor” value was “not detected”; the “Intraocular concentration, itemized: Lens” value was “not detected”; the “Other ocular tissues: ratio to plasma concentration (100%)” value is given as “(27.8%)*^2”. Besides, the Eyeball/plasma ratio in data set [4] (2 mg/kg) is 13%. The concentration at 15 min in data set [4] (male, Wistar, eye (ocular tissues), read-out: Intraocular concentration) stood at 16 ng/g. The Kp at 15 min in data set [4] (male, Wistar, eyeball/plasma, read-out: Eyeball/plasma ratio) was 0.13. For the same compound, the concentration at 15 min in data set [4] (male, Wistar, plasma, read-out: Plasma concentration) turned out to be 120 ± 16 ng/mL. Further, the concentration at 15 min in data set [4] (male, Wistar, read-out: Intraocular concentration, itemized: Other ocular tissues (cornea, sclera, iris-ciliary body, vitreous body, retina-choroid)) turned out to be 33.4 ng/g. For the same compound, the “time after application at which plasma concentration reached the peak” value in data set [5] (SJA6017 patch No. S4, 10 cm^2, rat) was determined as 12 h. Besides, in data set [5] (SJA6017 patch No. S4, 10 cm^2, rat, 24 hours), the “plasma concentration 24 hours after application relative to its peak” value was “about 85%”. Further, in data set [5] (setting [6]), the concentration at 8 h is 50 ng/mL, the concentration at 12 h amounted to 114 ng/mL, the concentration at 18 h amounted to 68 ng/mL and the concentration at 24 h worked out at 98 ng/mL. In data set [5] (setting [7]), the concentration at 0 h came to 0 ng/mL, the concentration at 2 h came out at 30 ng/mL, the concentration at 4 h is 36 ng/mL and the concentration at 6 h is 58 ng/mL.
